Measured values taken from patent US10259810B2, “N-sulfonylated pyrazolo[3,4-b]pyridin-6-carboxamides and method of use” (AbbVie S.à.r.l., priority 2015, dated 2019).

Key:
ΔF508-CFTR [1] = molecular target: T1, ΔF508-CFTR (Homo sapiens, UniProt P13569, DEL508-508); assay: CFTR cell surface levels using HRP-tagged ΔF508-CFTR expressing CFBE cells, in the presence of a co-corrector; type: cell-based; conditions: HRP-tagged ΔF508-CFTR CFBE cells, in the presence of 3 μM co-corrector; for EC50: read-out: EC50
T1 construct: host or cells: CFBE41o-, doxycycline-inducible
T1 sequence (P13569 with tags, fused parts or gaps DEL508-508): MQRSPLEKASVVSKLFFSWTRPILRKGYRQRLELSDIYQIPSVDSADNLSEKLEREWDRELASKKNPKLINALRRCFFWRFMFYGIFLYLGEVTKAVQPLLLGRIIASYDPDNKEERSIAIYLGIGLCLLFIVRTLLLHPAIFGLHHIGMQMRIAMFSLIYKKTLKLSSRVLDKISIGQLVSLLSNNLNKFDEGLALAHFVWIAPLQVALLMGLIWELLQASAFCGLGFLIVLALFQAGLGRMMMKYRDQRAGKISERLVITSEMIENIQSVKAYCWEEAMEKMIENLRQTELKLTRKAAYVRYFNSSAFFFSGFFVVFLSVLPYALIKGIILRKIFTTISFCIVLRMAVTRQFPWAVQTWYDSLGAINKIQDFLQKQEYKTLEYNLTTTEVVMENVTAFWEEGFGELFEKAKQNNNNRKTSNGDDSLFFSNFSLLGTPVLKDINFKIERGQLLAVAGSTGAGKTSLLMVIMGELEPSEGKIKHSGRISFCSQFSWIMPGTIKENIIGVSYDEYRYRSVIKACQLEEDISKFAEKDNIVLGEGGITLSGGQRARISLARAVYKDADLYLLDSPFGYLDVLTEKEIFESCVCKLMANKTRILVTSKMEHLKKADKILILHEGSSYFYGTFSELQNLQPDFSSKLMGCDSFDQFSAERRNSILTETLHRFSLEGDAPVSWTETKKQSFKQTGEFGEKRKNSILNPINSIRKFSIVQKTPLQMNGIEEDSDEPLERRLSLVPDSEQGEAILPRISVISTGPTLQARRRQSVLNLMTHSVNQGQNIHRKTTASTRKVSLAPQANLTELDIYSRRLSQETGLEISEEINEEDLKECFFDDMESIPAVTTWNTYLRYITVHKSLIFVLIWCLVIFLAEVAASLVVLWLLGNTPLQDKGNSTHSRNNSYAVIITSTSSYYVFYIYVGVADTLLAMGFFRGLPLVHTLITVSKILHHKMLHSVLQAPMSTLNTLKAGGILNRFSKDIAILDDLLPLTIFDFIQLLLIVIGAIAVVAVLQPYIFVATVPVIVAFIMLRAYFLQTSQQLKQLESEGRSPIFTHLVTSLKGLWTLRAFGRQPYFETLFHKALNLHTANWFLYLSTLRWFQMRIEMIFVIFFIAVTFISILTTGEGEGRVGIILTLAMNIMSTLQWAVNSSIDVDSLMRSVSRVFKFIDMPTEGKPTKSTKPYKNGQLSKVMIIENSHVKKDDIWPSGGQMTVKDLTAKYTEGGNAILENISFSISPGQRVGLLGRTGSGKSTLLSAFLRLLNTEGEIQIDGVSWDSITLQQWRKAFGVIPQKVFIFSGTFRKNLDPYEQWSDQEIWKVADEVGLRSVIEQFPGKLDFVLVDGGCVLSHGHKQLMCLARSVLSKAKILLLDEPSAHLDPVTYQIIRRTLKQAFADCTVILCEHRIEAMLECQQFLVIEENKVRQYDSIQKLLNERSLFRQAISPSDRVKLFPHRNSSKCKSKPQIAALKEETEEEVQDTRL
In short: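 Chemiluminescent read-out of surface HRP (15 min, dark) after PBS washes. Activity is normalized as 100×(sample−DMSO)/(3 μM co-corrector alone−DMSO).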

ΔF508-CFTR [2] = molecular target: T1, ΔF508-CFTR; assay: CFTR cell surface levels using HRP-tagged ΔF508-CFTR expressing CFBE cells, intrinsic corrector capacity; type: cell-based; parameters: % Activation: concentration or dose not given beside the values; conditions: HRP-tagged ΔF508-CFTR expressing CFBE41o- cells, compound alone (intrinsic corrector capacity), 20 hours at 33° C.; for EC50: read-out: EC50
In short: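 Read-out: chemiluminescent HRP activity of ECL4-HRP-tagged ΔF508-CFTR at the cell surface, 15 min substrate in dark. Normalized as 100×(sample−DMSO)/(positive control−DMSO).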

| Structure (SMILES) | % Activation (ΔF508-CFTR [1]) | EC50 (ΔF508-CFTR [1]) | % Activation (ΔF508-CFTR [2]) | EC50 (ΔF508-CFTR [2]) |
| --- | --- | --- | --- | --- |
| Cc1cccc(-n2nc(C(C)C)c3c(N4CCC5(C4)CC5(F)F)cc(C(=O)NS(C)(=O)=O)nc32)c1 (centres unmarked) [Compound 149, 4-(1,1-difluoro-5-azaspiro[2.4]heptan-5-yl)-N-(methanesulfonyl)-1-(3-methylphenyl)-3-(propan-2-yl)-1H-pyrazolo[3,4-b]pyridine-6-carboxamide] | 299.95% | 0.259 µM | 122.3% | 0.386 µM |
| CC(C)c1nn(-c2cccc(N3CCOCC3)c2)c2nc(C(=O)NS(C)(=O)=O)cc(-c3ccc(N(C)C4CCOCC4)cc3)c12 [Compound 97, N-(methanesulfonyl)-4-{4-[methyl(oxan-4-yl)amino]phenyl}-1-[3-(morpholin-4-yl)phenyl]-3-(propan-2-yl)-1H-pyrazolo[3,4-b]pyridine-6-carboxamide] | 692.82% | 0.277 µM | 444.85% | 0.399 µM |
| CCS(=O)(=O)NC(=O)c1cc(N2CCCC(OC)C2)c2c(C(C)C)nn(-c3cccc(C)c3)c2n1 (centres unmarked) [Compound 163, N-(ethanesulfonyl)-4-(3-methoxypiperidin-1-yl)-1-(3-methylphenyl)-3-(propan-2-yl)-1H-pyrazolo[3,4-b]pyridine-6-carboxamide] | 342.3% | 0.112 µM | 175.4% | 0.442 µM |
| CO[C@H]1CC[C@H](Oc2cc(C(=O)NS(C)(=O)=O)nc3c2c(C2CCC2)nn3-c2ccccc2)CC1 [Compound 212, 3-cyclobutyl-N-(methanesulfonyl)-4-[(trans-4-methoxycyclohexyl)oxy]-1-phenyl-1H-pyrazolo[3,4-b]pyridine-6-carboxamide] | 290.43% | 0.324 µM | 114.63% | 0.621 µM |
| CC(C)c1nn(C2CCC(F)(F)CC2)c2nc(C(=O)NS(C)(=O)=O)cc(-c3ccc(N4CCOCC4)cc3)c12 [Compound 38, 1-(4,4-difluorocyclohexyl)-N-(methanesulfonyl)-4-[4-(morpholin-4-yl)phenyl]-3-(propan-2-yl)-1H-pyrazolo[3,4-b]pyridine-6-carboxamide] | 447.7% | 0.581 µM | 182% | 0.85 µM |
| Cc1nn(-c2ccccc2)c2nc(C(=O)NS(C)(=O)=O)cc(-c3ccc(N4CCC(N(C)C)C4)cc3)c12 (centres unmarked) [Compound 100, 4-{4-[3-(dimethylamino)pyrrolidin-1-yl]phenyl}-N-(methanesulfonyl)-3-methyl-1-phenyl-1H-pyrazolo[3,4-b]pyridine-6-carboxamide] | 340.6% | 3.22 µM | 113% | 2.48 µM |
| CC(C)COC1CCN(c2cc(C(=O)NS(C)(=O)=O)nc3c2c(C(C)C)nn3-c2ccc(F)cc2)CC1 [Compound 175, 1-(4-fluorophenyl)-N-(methanesulfonyl)-4-[4-(2-methylpropoxy)piperidin-1-yl]-3-(propan-2-yl)-1H-pyrazolo[3,4-b]pyridine-6-carboxamide] | 461.1% | 0.2 µM | 270.5% | 0.337 µM |
| CC(C)(C)S(=O)(=O)NC(=O)c1cc(N2CCC(CN3CCCC3)CC2)c2c(C3CCC3)nn(-c3ccccc3)c2n1 [Compound 465, 3-cyclobutyl-N-(2-methylpropane-2-sulfonyl)-1-phenyl-4-{4-[(pyrrolidin-1-yl)methyl]piperidin-1-yl}-1H-pyrazolo[3,4-b]pyridine-6-carboxamide] | 293.15% | 0.36 µM | 131.6% | 0.313 µM |
| CCS(=O)(=O)NC(=O)c1cc(-c2ccc(N3CCOCC3)cc2)c2c(C(C)C)nn(C3CCCCC3)c2n1 [Compound 45, 1-cyclohexyl-N-(ethanesulfonyl)-4-[4-(morpholin-4-yl)phenyl]-3-(propan-2-yl)-1H-pyrazolo[3,4-b]pyridine-6-carboxamide] | 438.4% | 0.203 µM | 210.97% | 0.327 µM |
| O=C(NS(=O)(=O)C1CC1)c1cc(N2CCC(N3CCN(C4CC4)CC3)CC2)c2c(C3CCC3)nn(-c3ccccc3)c2n1 [Compound 550, 3-cyclobutyl-N-(cyclopropanesulfonyl)-4-[4-(4-cyclopropylpiperazin-1-yl)piperidin-1-yl]-1-phenyl-1H-pyrazolo[3,4-b]pyridine-6-carboxamide] | 605.45% | 0.173 µM | 347% | 0.361 µM |
| CCOC(=O)N1CCC(NS(=O)(=O)NC(=O)c2cc(N3CCC(COC)CC3)c3c(C4CCC4)nn(-c4ccccc4)c3n2)CC1 [Compound 393, ethyl 4-[({3-cyclobutyl-4-[4-(methoxymethyl)piperidin-1-yl]-1-phenyl-1H-pyrazolo[3,4-b]pyridine-6-carbonyl}sulfamoyl)amino]piperidine-1-carboxylate] | 533.65% | 0.0208 µM | 423.6% | 0.0514 µM |
| COCC1CCN(c2cc(C(=O)NS(=O)(=O)N3CCC(C(=O)N4CCN(C)CC4)CC3)nc3c2c(C2CCC2)nn3-c2ccccc2)CC1 [Compound 398, 3-cyclobutyl-4-[4-(methoxymethyl)piperidin-1-yl]-N-[4-(4-methylpiperazine-1-carbonyl)piperidine-1-sulfonyl]-1-phenyl-1H-pyrazolo[3,4-b]pyridine-6-carboxamide] | 324.03% | 0.0736 µM | 173.7% | 0.181 µM |
| CC(C)c1nn(C2CCCCC2)c2nc(C(=O)NS(C)(=O)=O)cc(-c3ccc(N4CCC(C)(C#N)CC4)nc3)c12 [Compound 98, 4-[6-(4-cyano-4-methylpiperidin-1-yl)pyridin-3-yl]-1-cyclohexyl-N-(methanesulfonyl)-3-(propan-2-yl)-1H-pyrazolo[3,4-b]pyridine-6-carboxamide] | 360.15% | 0.393 µM | 154% | 0.556 µM |
| CS(=O)(=O)NC(=O)c1cc(N2CCC(N3CCOCC3)CC2)c2c(C3CCC3)nn(-c3cccc(F)c3)c2n1 [Compound 515, 3-cyclobutyl-1-(3-fluorophenyl)-N-(methanesulfonyl)-4-[4-(morpholin-4-yl)piperidin-1-yl]-1H-pyrazolo[3,4-b]pyridine-6-carboxamide] | 479.2% | 0.0529 µM | 287.1% | 0.179 µM |
| O=C(NS(=O)(=O)N1CCOCC1)c1cc(N2CCC(N3CCOCC3)CC2)c2c(C3CCC3)nn(-c3ccccc3)c2n1 [Compound 383, 3-cyclobutyl-N-(morpholine-4-sulfonyl)-4-[4-(morpholin-4-yl)piperidin-1-yl]-1-phenyl-1H-pyrazolo[3,4-b]pyridine-6-carboxamide] | 412.20% |  | 202.9% |  |
| CS(=O)(=O)NC(=O)c1cc(N2CCC(O)(CC#N)CC2)c2c(C3CCC3)nn(-c3ccccc3)c2n1 [Compound 326, 4-[4-(cyanomethyl)-4-hydroxypiperidin-1-yl]-3-cyclobutyl-N-(methanesulfonyl)-1-phenyl-1H-pyrazolo[3,4-b]pyridine-6-carboxamide] | 325.3% | 0.73 µM | 167.1% | 2.38 µM |
